Literature values in patent publication US7887847B2, “Nutritional supplement for treatment of ocular diseases” (priority 2004, dated 2011).

Tested on: macular degeneration
Details: adults with the highest dietary intake compared with people with the lowest intake

In the case of `CC1=C[C@H](O)CC(C)(C)[C@H]1/C=C/C(C)=C/C=C/C(C)=C/C=C/C=C(C)/C=C/C=C(C)/C=C/C1=C(C)C[C@@H](O)CC1(C)C` [lutein, Lutein], the “decreased risk of macular degeneration” value is listed as 57%.
